According to US9358229B2, “JAK PI3K/mTOR combination therapy” (Novartis Pharma AG, priority 2011, dated 2016):
Like-named read-outs stand apart in the source and are kept apart here.

Columns and labels:
[1] = tested on: cell lines (Ba/F3, Ba/F3-EPOR, HEL, SET2); experiment: Apoptosis (Annexin-V) in cell lines; type: cell-based; conditions: at maximum / highest concentrations
Experimental: (§1) Mouse (Ba/F3 and Ba/F3-EPOR wild-type or expressing JAK2V617F(VF)) and human (JAK2VF mutated HEL and SET2) cell lines and primary MPN CD34+ cells from patients with myelofibrosis (MF) or polycythemia vera (PV) were used; BCR/ABL mutated K562 cells were used in some experiments. Cell proliferation, colony formation, apoptosis, cell cycle and protein phosphorylation status were evaluated. Effects of drug combination were analyzed according to Chou and Talalay to calculate the combination index (CI); a CI<1.0 indicates synergistic activity.

[2] = tested on: JAK2V617F-mutated HEL cells; experiment: Cell proliferation and colony formation in HEL cells; type: cell-based; conditions: Homo sapiens
Experimental: as §1

[3] = tested on: CD34+ cells of healthy donors; experiment: Proliferation of CD34+ cells of healthy donors; type: cell-based; conditions: Homo sapiens
[4] = tested on: Ba/F3-EPOR JAK2V617F-mutated cells; experiment: Cell proliferation in Ba/F3-EPOR JAK2V617F-mutated cells; type: cell-based; conditions: Mus musculus, read-out: IC50, cell proliferation
Experimental: as §1

[5] = tested on: BaF3 JAK2V617F-luc+ cells; experiment: SCID BaF3 JAK2V617F-luciferase mouse model; type: in vivo; conditions: daily per os, 60 mpk Compound B, 45 mpk Compound A
Experimental: To ascertain the effects of drugs targeting PI3K/Akt/mTOR pathway alone and in combination with JAK2 inhibitor in a murine model of myeloproliferative neoplasms, a SCID BaF3 JAK2^V617F-luciferase mouse model was used. […] Female SCID mice (4-6 weeks of age; Harlan) were fed rodent standard chow and provided with water ad libitum. Mice were given 3×10^6 JAK2^V617F-luc+ cells by tail vein injection. Mice were injected with D-luciferin before imaging to detect a bioluminescence signal that is proportional to the clone burden. Baseline imaging was performed using a Photon Imager (Biospace Lab) apparatus to establish bioluminescence on day 6 after cell injection. […] Drugs treatment was administered daily per os (by mouth). Imaging was performed on day 7, 14, 21, and 28 after the first drug dose. Mice were followed daily for survival and humanely sacrificed when they developed hind limb paralysis or became moribund and considered deceased at the time at which they were sacrificed.

[6] = tested on: JAK2V617F-mutated SET2 cells; experiment: Cell proliferation and colony formation in SET2 cells; type: cell-based; conditions: Homo sapiens, SET-2
CD34+ cells of MF pts = experiment: Proliferation of CD34+ cells of MF patients; type: cell-based; conditions: Homo sapiens
Experimental: as §1
(§2) Then, the activity of RAD001 and Compound A was analyzed in primary cells from MPN patients.

[7] = tested on: EPO-independent colonies (EEC) of PV patients cells; experiment: Erythropoietin-independent colony (EEC) assay; type: cell-based, human; conditions: for prevention of erythropoietin-independent colony (EEC) formation: primary cells from MPN patients
Experimental: as §1, §2

[8] = tested on: JAK2 V617F Knock-in (KI) mouse; experiment: C57B16/J JAK2 V617F Knock-in (KI) mouse model; type: in vivo; conditions: KI mice treated for 5 days
Experimental: Mice were treated for 5 days, then blood, spleen and bone marrow cells were obtained for further analysis.

[9] = tested on: Ba/F3-EPOR JAK2 wild-type (wt) cells; experiment: Cell proliferation in Ba/F3-EPOR JAK2 wild-type cells; type: cell-based; conditions: Mus musculus, read-out: IC50, cell proliferation
Experimental: as §1

[10] = tested on: BCR/ABL mutated K562 cells; experiment: Cell proliferation in K562 cells; type: cell-based; conditions: Homo sapiens
Experimental: as §1

[11] = tested on: JAK2V617F mutated patients cells; experiment: Single-colony genotyping in JAK2V617F mutated patients cells; type: cell-based, human; conditions: n=7
Experimental: as §2

Row | Structure (SMILES) | apoptosis / Annexin-V +ve cells [1] | IC50 [2] [nM] | IC50 [3] [nM] | IC50 [4] [nM] | MEAN LIFESPAN [5] [days] | LIFESPAN INCREASE (%) VS VEHICLE [5] [%] | IC50 [6] [nM] | IC50 (CD34+ cells of MF pts) [nM] | IC50 ([7]; Homo sapiens, PV patients cells, read-out: IC50, growth of EPO-independent colonies (EEC)) [nM] | prevention of erythropoietin-independent colony (EEC) formation [7] | median spleen index (ratio of spleen weight to body weight×100) [8] | reticulocyte count median [8] [No. per HPF] | IC50 [9] [nM] | IC50 [10] [nM] | reduction of VF in favor of wild-type colonies ([11]; mean) [%] | reduction of VF in favor of wild-type colonies, range ([11]; range) | IC50 ([4]; Ba/F3-EPOR JAK2V617F-mutated cells) [nM] | IC50 ([9]; Ba/F3-EPOR JAK2 wild-type cells) [nM]
1 | Cn1c(=O)n(-c2ccc(C(C)(C)C#N)cc2)c2c3cc(-c4cnc5ccccc5c4)ccc3ncc21 [Compound A, 2-methyl-2-[4-(3-methyl-2-oxo-8-quinolin-3-yl-2,3-dihydro-imidazo[4,5-c]quinolin-1-yl)-phenyl]-propionitrile] | 30-40% | 387 ± 90 | 780 ± 150 | 87 ± 50 | 24 | 42 | 334 ± 40 | 43 ± 20 | 20 ± 10 | low nM range | 35 | 50 | 676 ± 200 | 5000 | 40±16 | 18-71% |  | 
2 | N#CC[C@H](C1CCCC1)n1cc(-c2ncnc3[nH]ccc23)cn1 [Compound B, (3R)-3-cyclopentyl-3-[4-(7H-pyrrolo[2,3-d]pyrimidin-4-yl)-1H-pyrazol-1-yl]propanenitrile] |  |  |  |  | 19 | 19 |  |  |  |  |  | 44 |  |  |  |  |  | 
3 | CO[C@H]1C[C@@H]2CC[C@@H](C)[C@@](O)(O2)C(=O)C(=O)N2CCCC[C@H]2C(=O)O[C@H]([C@H](C)C[C@@H]2CC[C@@H](OCCO)[C@H](OC)C2)CC(=O)[C@H](C)/C=C(\C)[C@@H](O)[C@@H](OC)C(=O)[C@H](C)C[C@H](C)/C=C/C=C/C=C/1C [RAD001, reference compound] |  |  |  |  |  |  |  |  |  | low nM range |  |  |  |  |  |  | 615 ± 50 | > 10000
